Measured values from US9951104B2, “Peptides and methods of using same” (Serpin Pharma, LLC, priority 2012, dated 2018).
“Also recorded” adds a separate entry of the source.

Key:
[1] = biological target: T1, TLR-2 (Mus musculus, UniProt Q9QUN7); assay: TLR-2 indicator cell line assay (HEK-Blue mTLR2, Invivogen), secreted alkaline phosphatase; format: cell-based; conditions: 20 μg/ml peptide for 24 hours (FIGS. 12, 13)
T1 construct: host or cells: HEK-Blue mTLR2 (engineered HEK reporter line secreting alkaline phosphatase)
T1 sequence (Q9QUN7 25-784): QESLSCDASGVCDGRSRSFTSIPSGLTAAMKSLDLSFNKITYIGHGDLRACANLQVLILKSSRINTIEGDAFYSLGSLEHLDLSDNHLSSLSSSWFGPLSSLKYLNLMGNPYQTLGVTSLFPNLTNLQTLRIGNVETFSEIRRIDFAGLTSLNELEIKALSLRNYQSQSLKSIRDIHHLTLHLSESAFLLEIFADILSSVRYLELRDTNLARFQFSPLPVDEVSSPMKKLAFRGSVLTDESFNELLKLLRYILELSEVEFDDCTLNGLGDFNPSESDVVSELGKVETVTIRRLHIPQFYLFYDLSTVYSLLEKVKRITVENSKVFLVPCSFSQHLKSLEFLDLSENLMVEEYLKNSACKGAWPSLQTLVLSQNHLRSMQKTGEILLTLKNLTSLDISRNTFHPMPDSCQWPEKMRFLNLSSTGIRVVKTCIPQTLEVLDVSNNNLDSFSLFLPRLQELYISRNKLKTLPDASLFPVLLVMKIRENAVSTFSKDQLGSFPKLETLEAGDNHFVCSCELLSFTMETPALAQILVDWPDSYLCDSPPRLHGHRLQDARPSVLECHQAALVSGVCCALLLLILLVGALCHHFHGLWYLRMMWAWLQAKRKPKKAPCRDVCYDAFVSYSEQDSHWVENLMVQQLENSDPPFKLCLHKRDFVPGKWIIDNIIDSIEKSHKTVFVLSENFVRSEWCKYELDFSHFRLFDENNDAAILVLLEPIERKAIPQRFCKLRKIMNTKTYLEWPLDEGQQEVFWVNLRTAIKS
Procedure: Graph summarizing representative data from assays with an engineered TLR-2 indicator cell line (HEK-Blue™ mTLR2, Invivogen). Cells were incubated with the indicated concentrations of peptide for 24 hours. Upon TLR2 activation, the cells secrete alkaline phosphatase which can be assayed. The assay was done in triplicate and averages with standard deviations are plotted.
Graph summarizing data from an experiment where an engineered TLR-2 indicator cell line (HEK-Blue™ mTLR2, Invivogen) was used to test the impact of substituting amino acid residues of the SP16 peptide with alanine (“alanine scan”). Cells were incubated with 20 μg/ml of the indicated peptides for 24 hours. Upon TLR2 activation, the cells secrete alkaline phosphatase which can be assayed. The assay was done in triplicate and averages are plotted. Peptide sequences are shown in the following figure. *p<0.05, compared with scrambled control (SP34).
We also performed a peptide optimization assay using an alanine scan with the TLR-2 assay. Data was obtained using an experiment with an engineered TLR-2 indicator cell line (HEK-BLUE™ mTLR2, Invivogen). Cells were incubated with the 20 μg/ml of the indicated peptides for 24 hours. Upon TLR2 activation, the cells secrete alkaline phosphatase which can be assayed. The assay was done in triplicate and averages are plotted. […]

[2] = SP16 pharmacokinetic profile, plasma concentration by LC/MS/MS; format: in vivo, rat; conditions: SP16, IV (5 mg/kg), normal rats
Procedure: In performing the assay, three normal rats were injected intravenously with 5 mg/kg SP16 and the plasma concentration of SP16 established at 8 time points following the injection. […] The assay was executed by Apredica, Boston, Mass.

[3] = biological target: T2, hERG (Homo sapiens, UniProt Q12809); assay: hERG FastPatch assay; format: cell-based; conditions: test conc 0.008-25 μM
T2 construct: Apredica (contract study)
T2 sequence (Q12809 whole entry): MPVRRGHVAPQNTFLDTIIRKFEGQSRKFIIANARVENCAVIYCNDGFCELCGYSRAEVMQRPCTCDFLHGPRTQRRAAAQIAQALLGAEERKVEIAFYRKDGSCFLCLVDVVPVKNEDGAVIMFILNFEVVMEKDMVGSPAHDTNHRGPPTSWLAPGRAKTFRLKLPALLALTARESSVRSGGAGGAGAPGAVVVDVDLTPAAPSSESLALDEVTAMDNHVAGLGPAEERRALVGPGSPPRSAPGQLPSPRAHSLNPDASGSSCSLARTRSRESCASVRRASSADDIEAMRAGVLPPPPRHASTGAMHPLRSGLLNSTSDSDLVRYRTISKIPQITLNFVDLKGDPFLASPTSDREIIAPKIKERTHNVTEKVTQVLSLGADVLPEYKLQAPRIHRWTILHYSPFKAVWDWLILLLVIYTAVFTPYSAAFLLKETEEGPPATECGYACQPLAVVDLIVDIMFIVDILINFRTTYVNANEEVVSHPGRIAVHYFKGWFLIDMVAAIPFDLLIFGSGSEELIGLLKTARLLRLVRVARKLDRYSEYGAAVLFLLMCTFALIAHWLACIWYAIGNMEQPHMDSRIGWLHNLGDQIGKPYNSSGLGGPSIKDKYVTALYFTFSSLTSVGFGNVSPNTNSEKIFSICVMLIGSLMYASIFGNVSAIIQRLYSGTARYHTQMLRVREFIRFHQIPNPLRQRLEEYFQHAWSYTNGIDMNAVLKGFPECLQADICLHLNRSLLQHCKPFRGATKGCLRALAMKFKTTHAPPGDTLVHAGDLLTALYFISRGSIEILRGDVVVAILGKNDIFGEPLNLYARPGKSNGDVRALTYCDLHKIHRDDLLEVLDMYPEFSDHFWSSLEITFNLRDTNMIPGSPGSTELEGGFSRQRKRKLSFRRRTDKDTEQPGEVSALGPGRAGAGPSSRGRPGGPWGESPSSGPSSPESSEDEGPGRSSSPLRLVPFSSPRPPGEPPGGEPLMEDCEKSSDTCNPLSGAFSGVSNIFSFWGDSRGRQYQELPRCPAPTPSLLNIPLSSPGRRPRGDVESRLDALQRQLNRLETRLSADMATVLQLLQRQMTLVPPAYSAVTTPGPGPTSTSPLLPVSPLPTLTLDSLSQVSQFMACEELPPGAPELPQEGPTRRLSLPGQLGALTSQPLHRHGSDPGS

[4] = system: 111 human receptors; assay: GenSEP Explorer panel, human receptor panning; conditions: whole GenSEP Explorer panel
Source text: In addition, we also performed a profile using human receptor panning. The GenSEP Explorer panel contains 111 in vitro assay targets carefully selected to assess drug/chemical biological activities. Assay categories include GPCRs, Voltage-Gated Ion Channels, Ligand-Gated Ion Channels, Neurotransmitter transporters, Nuclear Receptors and Steroids as well as a diverse set of biochemical targets including Phosphodiesterases, Kinases and other relevant enzymes.

[5] = system: LPS challenged mice; assay: Mouse LPS challenge model, serum TNF-alpha readout; format: in vivo; conditions: LPS challenged mice treated with alanine scanned SP16 peptides; compared to Dexamethasone (FIG. 10)
Procedure: In FIG. 10A the mice were treated with alanine scanned SP16 peptide. […] Based on this alanine screen, and without wishing to be bound by a theory, it appears that the C- and N-terminal amino acids contribute to the anti-inflammatory effect of the SP16 peptide. […] Groups of 3 animals were injected with 0.2 mg/kg peptide and subjected to LPS challenge. Serum TNF-alpha levels were determined by ELISA. Several peptides provided the same level of protection as 1 mg/kg Dexamethasone.
The ability of peptide drugs was tested to for their potential for the reduction of inflammatory cytokines following treatment with purified bacterial lipopolysaccharide (LPS)—a major component of bacterial cell wall of Gram negative bacteria. A model of inflammation was used wherein mice were injected with LPS, which induced a transient immune response and a surge of serum inflammatory cytokines. The immune response peaks after 90 minutes and subsides after 24 hours. The levels of key serum inflammatory markers were compared between mice treated and untreated with LPS 90 minutes after injection.
We designed 18 different peptides based on the hAAT sequence (Accession #AAB59371), and had these synthesized using conventional FMOC chemistry. To assess in vivo anti-inflammatory and therapeutic potential, the peptides were tested in a mouse lipopolysaccharide (LPS) challenge model with serum TNFα levels as readout. Using dexamethasone as reference, groups of 3 animals were IP injected with 0.2 mg/kg peptide 2 hours prior to an LPS challenge, and serum TNFα levels determined 30 min after the LPS challenge, by ELISA. The best performing peptide reduced serum TNFα levels equivalent to those achieved with 1 mg/kg dexamethasone. Next, shortened versions of this peptide were synthesized, tested in the mouse LPS challenge model, and a 17 amino acid peptide, SP16, emerged as a lead development candidate for further characterization. Next, SP16 was tested in a lethal endotoxemia model, which models endotoxemia following acute radiation exposure, where Gram negative bacteria leaking from the gastro-intestinal system can cause lethal endotoxemia.
Mice were injected with 0.5, 0.1, 0.02 and 0.004 mg of each peptide. Mice were also treated with dexamethasone as a positive control and vehicle as a negative control. Two hours later each mouse was injected with LPS. Samples were taken 90 minutes after LPS injection.
To evaluate the effect of different amino acids in the SP16 peptide for the immunomodulating effect, we created an alanine screen. […] The peptides wherein the substitution occurred within amino acids 4-14 of SP16, appeared to maintain and rather improve their capacity to reduce TNF-alpha levels compared to the control Dexamethasone. […]

For “A A A N K P F V F L M I E Q N T K (AAANKPFVFLMIEQNTK; listed as Homo sapiens) [SP37, SP16 with residues 1-3 substituted with alanines]”, the “impact on TLR-2 signaling (alanine scan)” value [1] was “no impact on TLR2”.

With `CC[C@H](C)[C@H](NC(=O)[C@H](CCSC)NC(=O)[C@H](CC(C)C)NC(=O)[C@H](Cc1ccccc1)NC(=O)[C@@H](NC(=O)[C@H](Cc1ccccc1)NC(=O)[C@@H]1CCCN1C(=O)[C@H](CCCCN)NC(=O)[C@H](CC(N)=O)NC(=O)[C@H](Cc1ccccc1)NC(=O)[C@H](CCCCN)NC(=O)[C@@H](N)C(C)C)C(C)C)C(=O)N[C@@H](CCC(=O)O)C(=O)N[C@@H](CCC(N)=O)C(=O)N[C@@H](CC(N)=O)C(=O)N[C@H](C(=O)N[C@@H](CCCCN)C(=O)O)[C@@H](C)O` [SP16] the Last Time point [2] was 8 h, the “hERG inhibition (comment)” value [3] was “does not inhibit hERG; also recorded: No concentration-dependent inhibition” and the “effect on 111 human receptors” value [4] was “no effect”.

For “V K F A A A F V F L M I E Q N T K (VKFAAAFVFLMIEQNTK; listed as Homo sapiens) [SP40]”, the TNF-alpha levels [5] was “reduce TNF-alpha levels more than Dexamethasone”.

With “V K F N K P A A A L M I E Q N T K (VKFNKPAAALMIEQNTK; listed as Homo sapiens) [SP43]” the TNF-alpha levels [5] was “reduce TNF-alpha levels more than Dexamethasone”.

With “V K F N K P F V F L M I A A A T K (VKFNKPFVFLMIAAATK; listed as Homo sapiens) [SP49]” the TNF-alpha levels [5] was “reduce TNF-alpha levels more than Dexamethasone”.

In the case of “V K F N K P F V F A A A E Q N T K (VKFNKPFVFAAAEQNTK; listed as Homo sapiens) [SP46]”, the TNF-alpha levels [5] is reported as “reduce TNF-alpha levels more than Dexamethasone”.
